The text below walks through data of patent US6869791B2, “Method for sterilizing transformed cells” (Sumitomo Chemical Company, Ltd., priority 2000, dated 2005).

For assay [1], the system named is esterase in culture broth of E. coli JM105/pYHNK 2 strain.
Description: 0.02 g of N-benzylazetidin-2-carboxyilic acid ethyl ester, 1.0 ml t-butyl methyl ether and 3.5 ml of 100 mM monopotassium phosphate-dipotassium phosphate buffer (pH 7.0) were added in a 10 ml threaded test tube and kept at 35′ for 15 minutes. 200 μl of the esterase solution was put in the test tube to measure its esterase activity and shaken reciprocally (120 str/min) at 35° C. for 16 minutes. Then 400% 1 of the mixed solution was centrifuged (12000 rpm, 5 minutes) after 1 ml t-butyl methyl ether was added and stirred. 200 μl of the obtained aqueous phase was analyzed quantitatively (by absolute calibration curve method) with respect to N-benzylazetidin-2-carboxylic acid by high performance liquid chromatography after dissolved in 20 mM phosphate acid monopotassium water/acetonitrile=90/10 and filtered by a 0.2 μl filter.
Assay [2] relates to E. coli JM105/pYHNK 2 strain. Type of assay: cell-based, Escherichia coli.
For assay [3], the system named is esterase derived from Chromobacterium SC-YM-1 (160S, 189Y mutant) in culture broth of E. coli JM 105/pCC160S189Y363term strain. To be noted: stirred 24 hours at 30° C. The protocol:
Measurement of the enzyme activity was performed by using p-nitrophenyl acetate (pNPA) as a substrate. A sample enzyme solution was added to a 3.0 ml of 100 mM phosphate buffer solution (pH 7.5) containing the substrate at a concentration of 5 mM and the resulting mixture is maintained at 37° C. An amount of liberated p-nitrophenol was measured by the increase of absorbance at 405 nm.

For assay [4], the system named is esterase derived from Arthrobacter SC-6-98-28 in culture broth of E. coli JM105/pEAR5 strain. The note with it: stirred 24 hours at 30° C. How it is done: Measurement of the Esterase Activity in Example 13 and 14:
To 5 ml of a diluted solution of the culture broth or sterilized solution obtained by the pre sent method was added 1 g of 2,2-dichloro-3-(1-propenyl)cyclopropane-1-carboxylic acid methyl ester (1R/1S=50/50, trans/cis98/2) and the resulting mixture was stirred at 45° C. for 30 minutes while maintaining the pH at 10.0. A portion of the reaction solution was sampled, acidified with hydrochloric acid, and extracted with ethyl acetate. The extract solution was analyzed by gas-chromatography to measure the hydrolysis rate (Internal standard: methyl cinnamate, column: HR20M 0.53 φ, 30 m, 1 μ, ULBON). The esterase activity was calculated from the hydrolysis rate.

Assay [5] deals with E. coli JM105/pEAR5 strain. The note with it: stirred 24 hours at 30° C. How it is done:
(§1) Number of viable cells was determined by the following method.
(§2) About 1 ml of a sample solution to be measured with the number of viable cells was diluted with physiological saline cooled to 4° C. 100 μl of the diluted solution was applied onto a LB-medium plate (L-Broth Ager (manufactured by BIO 101 Company, Ltd) containing ampicilline at a concentration of 100 μ/ml and kept at 37° C. for 1 to 2 days. Thereafter, number of the viable cells was calculated from the number of colonies grown thereon.

The test system of assay [6] is E. coli JM 105/pCC160S189Y363term strain. To be noted: stirred 24 hours at 30° C. How it is done:
as §1, §2

Where [7] appears, read: Example 9: 40 ml culture broth + 10 ml acetone, stirred 24 hours at 30° C.
Where [8] appears, read: Example 10: 40 ml culture broth + 10 ml acetone, stirred 6 hours at 30° C.
Where [9] appears, read: Example 11: 40 ml culture broth + 10 ml acetone, stirred 48 hours at 30° C.
[10] abbreviates: Example 12: 40 ml culture broth + 6.5 ml acetone, stirred 24 hours at 30° C.
The mark [11] stands for this setting: Example 1: 40 ml culture broth + 10 ml ethanol, stirred 24 hours at 30° C.
Where [12] appears, read: Example 2: 40 ml culture broth + 10 ml ethanol, stirred 6 hours at 30° C.
Where [13] appears, read: Example 3: 40 ml culture broth + 10 ml ethanol, stirred 48 hours at 30° C.
Setting [14] is: Example 4: 42.5 ml culture broth + 7.5 ml ethanol, stirred 24 hours at 30° C.
The mark [15] stands for this setting: Example 15: 45 g culture broth + 5 g ethanol.
Where [16] appears, read: Example 16: 37.5 g culture broth + 12.5 g ethanol.
Where [17] appears, read: Example 13: 45 g culture broth + 5 g ethanol.
The mark [18] stands for this setting: Example 14: 37.5 g culture broth + 12.5 g ethanol.
The mark [19] stands for this setting: Example 5: 40 ml culture broth + 10 ml methanol, stirred 24 hours at 30° C.
[20] abbreviates: Example 6: 40 ml culture broth + 10 ml methanol, stirred 6 hours at 30° C.
[21] abbreviates: Example 7: 40 ml culture broth + 10 ml methanol, stirred 48 hours at 30° C.
[22] abbreviates: Example 8: 40 ml culture broth + 10 ml methanol, stirred 5 hours at 25° C.

Structures are written as SMILES. Like-named read-outs stand apart in the source and are kept apart here.

Take `CC(C)=O` [acetone]: the “esterase activity of the mixed solution, relative to culture broth (1)” value in assay [1] (setting [7]), in assay [1] (setting [8]), in assay [1] (setting [9]) and in assay [1] (setting [10]) was no less than 95% throughout. Besides, the viable cell number in assay [2] (setting [7]), in assay [2] (setting [8]), in assay [2] (setting [9]) and in assay [2] (setting [10]) was 0 cfu/ml each time.

For the molecule `CCO` [ethanol], the “esterase activity of the mixed solution, relative to culture broth (1)” value in assay [1] (setting [11]), in assay [1] (setting [12]), in assay [1] (setting [13]) and in assay [1] (setting [14]) was no less than 95% in each case. Further, the “esterase activity of the solution, relative to culture broth (3)” value in assay [3] (setting [15]) and in assay [3] (setting [16]) was no less than 95% each time. The “esterase activity of the solution, relative to culture broth (2)” value in assay [4] (setting [17]) and in assay [4] (setting [18]) was no less than 95% throughout. Further, the viable cell number in assay [2] (setting [11]), in assay [2] (setting [12]), in assay [2] (setting [13]), in assay [2] (setting [14]), in assay [5] (setting [17]) and in assay [5] (setting [18]) was 0 cfu/ml each time. The viable cell number in assay [6] (setting [15]) and in assay [6] (setting [16]) was 0 cfu/ml in each case.

For `CO` [methanol], the “esterase activity of the mixed solution, relative to culture broth (1)” value is no less than 95% in assay [1] (setting [19]), no less than 95% in assay [1] (setting [20]) and no less than 92% in assay [1] (setting [22]). Moreover, in assay [1] (setting [21]), the “esterase activity of the mixed solution, relative to broth solution (1)” value is listed as no less than 95%. In addition, the viable cell number in assay [2] (setting [19]), in assay [2] (setting [20]), in assay [2] (setting [21]) and in assay [2] (setting [22]) was 0 cfu/ml each time.
